Read-outs that look alike come from different tables or passages of the source.
Key:
[1] = system: Smad-4-deficient pancreatic adenocarcinoma cells (BxPC3); test: 3-6 BxPC3 xenograft growth curve, single administration of ADR, Doxil, Micelle-ADR with or without LY; format: in vivo, nude mice; conditions: day 14, single dose 8 mg/kg anticancer agent i.v., LY 1 mg/kg i.p. once, start = 1, control 4.77±0.50
Procedure: For each of 8 mg/kg of Doxil, 8 mg/kg of Micelle-ADR or 8 mg/kg of ordinary ADR as anticancer agent, or no anticancer agent, which was administrated via the tail vein, administration was carried out only once. […] Inhib in the figures) as TGF-β inhibitor or a control.

[2] = system: existing vasculature of general organs (brain, liver, kidney); test: 3-2 General organs, vasculature morphological change and dextran distribution; format: in vivo, nude mice; conditions: LY 1 mg/kg i.p.
Excerpt: Brain, liver and kidney were extracted from animals used in 3-1 to carry out histological search.

[3] = system: TGFbRII-mutant pancreatic adenocarcinoma cell line MIA PaCa-2; test: 3-8 MIA PaCa-2 xenograft tumor growth curve; format: in vivo, nude mice; conditions: regimen as 3-7, start = 1, control 2.91±0.30
Procedure: For each of, 16 mg/kg of Micelle-ADR or 8 mg/kg of ADR as anticancer agent, or no anticancer agent, administration via the tail vein was carried out three times spaced by four days. As TGF-β inhibitor, 1 mg/kg of LY364947 (hereinafter, referred to as LY) or control was administered three times a week intraperitoneally. The experiment was carried out for the six conditions combining the above 3×2 types [of administration modes], with n=5 each. For these animals, the approximated values of tumor volume were observed continuously for 16 days. For the tumor volumes, those that have been approximated by long side of tumor mass×(short side)^2 were compared, taking 1 as the value at the administration start time for each tumor mass.

[4] = system: neovasculature in BxPC3 tumor tissue; test: 3-1 BxPC3 xenograft, neovasculature morphological change and dextran distribution; format: in vivo, nude mice
Procedure: Twenty-four hours before sacrificing the animals, 1 mg/kg of LY364947 (hereinafter, referred to as LY) as TGF-β inhibitor or a control was administered once intraperitoneally. […] Concretely, regarding the neovasculature morphology, vascular endothelial cells were recognized with an antibody against PECAM-1 (platelet endothelial cell adhesion molecule-1), vascular pericytes were recognized with an antibody against NG2 (neuroglycan 2), the proportion of the areas covered by pericytes within the total endothelial cell area, and, the areas positive for the vascular endothelium marker were quantified (hereabove, n=4 animals×10 microscopic visual fields=40), in addition, regarding dextran distribution, the distribution area thereof was quantified. In addition, after an identical model was prepared, 6 hours prior to sacrifice, macromolecular dextran with a molecular weight of 2,000,000 (Invitrogen Molecular Probes) was administered via the tail vein, and the difference in distribution in tumor tissue due to the presence or absence of inhibitor was investigated by quantification of the distribution area (n=3 animals×4 microscopic visual field=12).

neovasculature = test: Matrigel plug assay, effects of TGF-β signaling inhibitor on neovasculature; format: in vivo, ICR mice; conditions: 500 nM LY
Procedure: In the present invention, increasing the leakiness of neovasculature in tumor tissue, and, depending on the circumstances, decreasing fibrosis, are phenomena that can be observed, for instance, in a dextran injection experiment (briefly, an experiment in which a mouse is used, a Matrigel in which VEGF-A and FGF-2 have been mixed is injected subcutaneously into the abdominal wall, and seven days after administering TGF-β signaling inhibitor intraperitoneally, 2,000,000 molecular weight dextran is injected, the animal is sacrificed, and the relationship between neovasculature and dextran distribution in the extracted Matrigel plug is determined: refer to Kano, M. R. et al., J. Cell Sci., 118, 3759-3768. (2005)) (refer to FIG. 2-1 and FIG. 2-2).
VEGF-A, FGF-2, and heparin were mixed into Matrigel (BD), furthermore, 500 nM of the TGF-β inhibitor LY364947 (hereinafter, referred to as LY) or 50 μg/ml of T βRII:Fc or a control was further mixed into the same gel, these were subcutaneously injected into the abdominal wall of male ICR mice, the animals were sacrificed on the 7th day to extract the Matrigel plug, and a search was carried out using immunofluorescence staining. Concretely, regarding the neovasculature morphology, vascular endothelial cells were recognized with an antibody against PECAM-1 (platelet endothelial cell adhesion molecule-1) and vascular pericytes were recognized with an antibody against SMA (a smooth muscle actin), in the LY-administered group or control group, the proportion of the areas covered by pericytes within the total endothelial cell area, and, the areas positive for the vascular endothelium marker were quantified (hereabove, n=20). In addition, 6 hours prior to sacrifice, macromolecular dextran with a molecular weight of 2,000,000 (Invitrogen Molecular Probes) was administered via the tail vein, and the difference in distribution in tumor tissue due to the presence or absence of inhibitor was investigated by quantification of the distribution area (n=21).

[5] = 3-14 Drug in vivo dynamics in general organs, Micelle-ADR or ADR with LY; set-up: species or system nude mice
Procedure: Each of 8 mg/kg of Micelle-ADR or 8 mg/kg of ADR as anticancer agent was administered to tumor-bearing nude mice via the tail vein. As TGF-β inhibitor, 1 mg/kg of LY or a control was administered intraperitoneally. Experiment was carried out for the four conditions combining the above 2×2 types [of administration modes], with n=3. […] In addition, the surrounding of the tail vein where the agents were administered was observation.

phosphorylated Smad2 [6] = test: 3-3 Phosphorylated Smad2 staining in BxPC3 cancer tissue one hour after LY364947; format: in vivo, nude mice; conditions: 1 h
Procedure: As TGF-β inhibitor, 1 mg/kg, 25 mg/kg or a control of LY was administered once intraperitoneally. The animals were sacrificed one hour after administration to extract the tumor, and immuno-histological staining of the tumor was carried out using an antibody against phosphorylated Smad2 as well as an antibody against PECAM1.

[7] = system: Smad-4-deficient pancreatic adenocarcinoma cells (BxPC3); test: 3-7 BxPC3 xenograft growth curve, three administrations of ADR or Micelle-ADR with or without LY; format: in vivo, nude mice; conditions: day 16, Micelle-ADR 16 mg/kg or ADR 8 mg/kg i.v. three times spaced by four days, LY 1 mg/kg i.p. three times a week, start = 1, control 4.69±0.46
Procedure: For each of, 16 mg/kg of Micelle-ADR or 8 mg/kg of ADR as anticancer agent, or no anticancer agent, administration via the tail vein was carried out three times spaced by four days. […] For these animals, the approximated values of tumor volume were observed continuously for 16 days.

phosphorylated Smad2 [8] = test: 3-4 Phosphorylated Smad2 in nucleated blood cells by FACS one hour after LY364947; format: in vivo, nude mice; conditions: LY 1 mg/kg i.p., 1 h, control group 35.7%
Procedure: Cancer-transplanted nude mice were administered once intraperitoneally with 1 mg/kg of LY as TGF-β inhibitor or a control. One hour after administration, whole blood collection was carried out, hemolysis treatment, formalin fixation, cell membrane perforation by methanol were carried out, then, staining was carried out with an antibody against phosphorylated Smad2, thereafter, the ratio of phosphorylated Smad2-positive cells was measured by FACS. In so doing, with those [samples] where only the secondary antibody was reacted serving as controls for the immuno-staining method, the gate was set so that rate of positive cell was approximately 1% in this group (P1 in FIG. 5-2), and the ratio of phosphorylated Smad2-positive cells was measured for the TGF-β inhibitor-administered group and the non-treated group.

[9] = system: Smad-4-deficient pancreatic adenocarcinoma cells (BxPC3); test: Combined effect of Gemcitabine and LY364947 on tumor volume, pancreatic adenocarcinoma xenograft model; format: in vivo, nude mice; conditions: day 21, Gem 125 mg/kg i.p. twice a week, LY 1 mg/kg i.p. three times a week, value at start = 1, control 5.56±1.59
Procedure: Combining Gemcitabine (hereinafter, abbreviated as Gem), administrated twice a week intraperitoneally at 125 mg/kg, and LY364947 (hereinafter, referred to as LY), administrated three times a week intraperitoneally at 1 mg/kg, three groups were established as follows: a control group, a Gem alone administration group and a LY+Gem combined application group, with n=2 each. […] The tumor volumes were approximated by long side of tumor mass×(short side)^2 and compared, taking 1 as the value at the administration start time for each tumor mass.

hepatic fibrosis = conditions: intraperitoneal injection, cited from earlier work
[10] = system: mouse breast cancer cell line 4T1; conditions: systemic administration by intraperitoneal injection; cited from earlier work

## c1ccc(-c2[nH]ncc2-c2ccnc3ccccc23)nc1 [LY364947]
[1]
  relative tumor volume on the last day: 4.83±0.54
[2]
  dextran distribution in general organs: no clear difference
  morphology of existing vasculature of general organs: No clear change in morphology
[3]
  relative tumor volume on the last day (16th day): 2.75±0.08
[4]; BxPC3 xenograft, LY 1 mg/kg i.p. once, 24 h, control 1.00±0.03, p=0.02
  endothelial cell marker-positive area: 1.13±0.06
[4]; BxPC3 xenograft, LY 1 mg/kg i.p. once, 24 h, control 36.0±2.2%, p=0.00002
  extent of coverage of endothelial cells by the pericyte: 23.3±1.9%
[4]; BxPC3 xenograft, LY 1 mg/kg i.p. once, dextran MW 2,000,000 6 h before sacrifice, control 1.00±0.13, p=0.002
  macromolecular dextran distribution area: 2.24±0.36
[4]; LY 1 mg/kg, administered vs non-administered, P=0.336
  fibrosis of tumor tissue (azan staining): no significant difference
neovasculature; day 7, p=0.0009
  total area of the vascular endothelium: increased significantly
neovasculature; day 7, vs non-administered group, p=0.006
  endothelial cell coverage of the pericytes: decreased significantly
neovasculature; dextran MW 2,000,000 i.v. 6 h before sacrifice, p<0.0001
  dextran distribution area: increased approximately two-fold
[5]; LY 1 mg/kg i.p., four hours
  organ distribution (frozen samples), LY administration vs non-administration: no clear difference
[5]; Micelle-ADR 8 mg/kg i.v., LY 1 mg/kg i.p., four hours, all organs measured
  total amount of ADR in organs by the HPLC method, LY administration vs non-administration: no significant difference
[5]; combined administration of LY 1 mg/kg i.p., surrounding of the tail vein
  anticancer agent-related phlebitis: no deterioration
Phosphorylated Smad2 [6]; LY 1 mg/kg i.p.
  Smad2 phosphorylation in intratumoral vascular walls, magnified visual field: cancellation of Smad2 phosphorylation was observed
  phosphorylated Smad2 staining of tumor vs control, weak magnification visual field: no remarkable difference
Phosphorylated Smad2 [6]; LY 25 mg/kg i.p.
  Smad2 phosphorylation in cancer cells: cancellation of Smad2 phosphorylation was observed in almost the entirety of the cancer cells
[7]
  relative tumor volume on the last day: 4.34±0.37
Phosphorylated Smad2 [8]
  cells positive for phosphorylated Smad2: 16.3%

## Nc1ccn([C@@H]2O[C@H](CO)[C@@H](O)C2(F)F)c(=O)n1 [Gemcitabine]
[9]
  relative tumor volume on the last day: 4.76±0.46

## COc1cccc2c1C(=O)c1c(O)c3c(c(O)c1C2=O)C[C@@](O)(C(=O)CO)C[C@@H]3O[C@H]1C[C@H](N)[C@H](O)[C@H](C)O1 [ADR, adriamycin]
[1]
  relative tumor volume on the last day: 4.70±0.32
[3]
  relative tumor volume on the last day (16th day): 0.87±0.19
[7]
  relative tumor volume on the last day: 3.49±0.20

B1: solubilized TGF-β Type II receptor: solubilized TGF-β Type II receptor (TGF-β ligand-adsorbed) protein, literature studies (protein, UniProt P37173 23-166, looked up)
extracellular domain: TIPPHVQKSVNNDMIVTDNNGAVKFPQLCKFCDVRFSTCDNQKSCMSNCSITSICEKPQEVCVAVWRKNDENITLETVCHDPKLPYHDFILEDAASPKCIMKEKKKPGETFFMCSCSSDECNDNIIFSEEYNTSNPDLLLVIFQ
modifications: extracellular domain
notes: solubilized TGF-β Type II receptor (TGF-β ligand-adsorbed) protein, literature studies
Hepatic fibrosis; 2.5 mg/kg
  hepatic fibrosis: not suppressed
Hepatic fibrosis; 5 mg/kg
  hepatic fibrosis: suppressed
[10]
  lung metastasis: decreased
